Reference: article PMC10935061 (Acta Pharmaceutica Sinica. B, 2023)

Molecular target: Nur77 (Homo sapiens, UniProt P22736)
Test: SPR
Format: binding

Nur77, sequence (P22736 360-598 limits assumed): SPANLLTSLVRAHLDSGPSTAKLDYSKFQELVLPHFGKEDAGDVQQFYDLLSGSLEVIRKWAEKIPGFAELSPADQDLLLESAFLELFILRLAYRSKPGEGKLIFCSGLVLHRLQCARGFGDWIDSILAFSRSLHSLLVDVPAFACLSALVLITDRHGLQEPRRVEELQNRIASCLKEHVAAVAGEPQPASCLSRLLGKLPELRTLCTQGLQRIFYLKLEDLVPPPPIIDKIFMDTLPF

CCCCCCCC(=O)c1cc(OC)c(OC)c(OC)c1CC(=O)OCC [TMPA]
Kd: 380 nM
